For 21 molecules, IC50 and inhibition results are on record in US20240101572A1, “DIHYDROOXADIAZINONE COMPOUND AND PHARMACEUTICAL USE THEREOF” (Japan Tobacco Inc., priority 2022, published 2024).

Read-outs that look alike come from different tables or passages of the source.

The target of test [1] is full-length human PLD1 (Homo sapiens (Human), UniProt Q13393). Briefly: Evaluation of human PLD1 enzyme inhibitory activity (Amplex Red / choline oxidase fluorescence). Type of test: biochemical. The method, then:
A method for measuring human PLD1 enzyme inhibitory activity using an enzyme in which a FLAG-tag is added to the N-terminus of full-length human PLD1 (1-1036 amino acids) is shown below.
(§1) DNA fragment in which a FLAG-tag sequence is added to the 5′-end of full-length human PLD1 was amplified by PCR method, using commercially available human PLD1 gene (Promega KK) as a template. The amplified DNA fragment was fused with vector pVL1393 for baculovirus production (Pharmingen) digested with BamHI and EcoRI, using In-Fusion HD Cloning Kit (Takara Bio). The full-length human PLD1-expression plasmid DNA for baculovirus was isolated from Escherichia coli DH5a (TOYOBO) transformed with the obtained In-Fusion reaction product. Next, DNA fragment in which a FLAG-tag sequence is added to the 5′-end of full-length human PLD1 was amplified by PCR method, using the full-length human PLD1-expression plasmid DNA for baculovirus as a template. The amplified DNA fragment was fused with a DNA fragment in which a linker sequence is introduced into pcDNA3.4-TOPO (Life Technologies), using In-Fusion HD Cloning Kit (Takara Bio). The full-length human PLD1-expression plasmid DNA for animal cells was isolated from Escherichia coli DH5a transformed with the obtained In-Fusion reaction product. The base sequence of the full-length human PLD1 cloned into vector was determined by a Dye Terminator method using BigDye Terminator v3.1 Cycle Sequencing Kit (Applied Biosystems). The determined sequence was a sequence in which the FLAG-tag sequence was inserted at the 5′-end of the full-length human PLD1 (GenBank Accession Number: NM_001130081).
(§2) Expi293F cells (Life Technologies) were cultured with shaking using Expi293 Expression Medium (Life Technologies) as a medium at 37° C. in the presence of 8% CO2. The gene introduction reagent PEI was prepared by dissolving Polyethylenimine Max (nominally MW 40,000) (Polysciences) in MilliQ water, adjusting the pH of the solution to 7.0 with NaOH to obtain a 1 mg/mL solution, and then filtering the solution through 0.22 μm filter. The full-length human PLD1-expression plasmid DNA for animal cells was transfected into Expi293F cells using PEI, and after 48 hours of shaking culture, the cells were collected and stored at −80° C.
(§3) To the full-length human PLD1-expressed cells was added a Homogenate buffer (20 mmol/L Na-phosphate pH 7.5, 250 mmol/L NaCl, 1 mmol/L MgCl2, 1% β-OG, 0.05 mmol/L DTT+complete EDTA-free (Roche Diagnostics K.K.)), and the cells were lysed by Microfluidizer Processor M-110EH (Mizuho Kogyo Co., Ltd.). The lysate was centrifuged at 10,100×g at 4° C. for 15 minutes, and the supernatant was collected and filtered through 0.45 μm filter. To the centrifuged supernatant was added ANTI-FLAG M2 Affinity Gel (SIGMA-Aldrich) resin equilibrated with a Homogenate buffer, and the mixed solution was stirred at 4° C. for 1 hr or more. The mixed solution was loaded onto Poly-Prep column, and the resin was washed with a Wash buffer (20 mmol/L Na-phosphate pH 7.5, 150 mmol/L NaCl, 1 mmol/L MgCl2, 0.02% Triton, 0.05 mmol/L DTT). A Wash buffer containing 400 μg/mL DYKDDDDK Peptide (Scrum Inc.) was added to the column to elute the protein bound to the resin. The eluted fractions were subjected to SDS-PAGE followed by CBB staining to identify the fractions containing the full-length human PLD1. The eluted fractions of the full-length human PLD1 were collected and concentrated using Amicon Ultra-15 100k (Merck Millipore). The concentrated fractions were collected, flash-frozen in liquid nitrogen and stored at −80° C.
(§4) A DMSO or test substance solution (the DMSO final concentration: 5%) prepared by diluting DMSO or test substance with an Assay buffer (50 mmol/L HEPES pH 7.5, 80 mmol/L KCl, 3 mmol/L EGTA, 3.6 mmol/L MgCl2, 0.01% NP-40, 0.1% BSA), and the solution was added to a 384 well Assay Plate (Black, Polystyrene, Non-Treated, Cat No. 3573, Corning) by 5 μL/well. […]

In test [2] the target is full-length human PLD2 (Homo sapiens (Human), UniProt O14939). Description: Evaluation of human PLD2 enzyme inhibitory activity (Amplex Red / choline oxidase fluorescence). Type of test: biochemical. The method, then: A method for measuring human PLD2 enzyme inhibitory activity using an enzyme in which a FLAG-tag is added to the N-terminus of full-length human PLD2 (1-933 amino acids) is shown below.
Sequence of full-length human PLD2 (O14939 whole entry, the tested form may be a part): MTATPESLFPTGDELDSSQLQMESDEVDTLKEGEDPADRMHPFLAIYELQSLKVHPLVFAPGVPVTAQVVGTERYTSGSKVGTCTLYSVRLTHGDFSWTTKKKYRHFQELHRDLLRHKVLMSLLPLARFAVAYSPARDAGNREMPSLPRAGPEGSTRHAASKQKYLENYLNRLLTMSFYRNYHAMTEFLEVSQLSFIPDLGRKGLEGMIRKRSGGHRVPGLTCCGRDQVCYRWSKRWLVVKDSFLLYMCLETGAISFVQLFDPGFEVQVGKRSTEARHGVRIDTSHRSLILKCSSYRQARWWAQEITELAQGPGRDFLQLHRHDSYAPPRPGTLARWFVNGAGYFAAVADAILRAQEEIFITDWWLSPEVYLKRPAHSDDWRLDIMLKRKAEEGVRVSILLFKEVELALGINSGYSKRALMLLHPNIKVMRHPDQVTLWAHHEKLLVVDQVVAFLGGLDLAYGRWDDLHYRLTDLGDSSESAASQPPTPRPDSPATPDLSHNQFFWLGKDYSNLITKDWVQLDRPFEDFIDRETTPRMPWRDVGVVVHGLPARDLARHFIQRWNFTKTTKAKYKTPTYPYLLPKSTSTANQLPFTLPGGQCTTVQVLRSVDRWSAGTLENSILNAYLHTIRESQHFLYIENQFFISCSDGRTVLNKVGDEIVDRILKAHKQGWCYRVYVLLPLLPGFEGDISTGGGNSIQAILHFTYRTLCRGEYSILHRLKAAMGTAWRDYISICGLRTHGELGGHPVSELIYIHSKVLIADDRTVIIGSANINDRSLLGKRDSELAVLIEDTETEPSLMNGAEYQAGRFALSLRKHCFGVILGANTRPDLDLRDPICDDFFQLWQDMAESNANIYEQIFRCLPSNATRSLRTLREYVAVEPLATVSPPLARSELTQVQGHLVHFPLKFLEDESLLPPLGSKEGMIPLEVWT
as §1, with “PLD2” for “PLD1”, “PLD2-expression” for “PLD1-expression”, “NM 002663).” for “NM_001130081).”
as §2, with “PLD2-expression” for “PLD1-expression”
as §3, with “PLD2-expressed” for “PLD1-expressed”, “PLD2.” for “PLD1.”, “PLD2” for “PLD1”
as §4

Where [3] appears, read: full-length human PLD1 enzyme, read-out: PLD1 IC50.
The mark [4] stands for this setting: full-length human PLD2 enzyme, read-out: PLD2 IC50.
Setting [5] is: read-out: human PLD1 % inhibition at 10 μM.
Setting [6] is: read-out: inhibition rate of PLD1 at 10 μM compound.
The mark [7] stands for this setting: read-out: human PLD2 % inhibition at 10 μM.
Where [8] appears, read: read-out: inhibition rate of PLD2 at 10 μM compound.

Sequence of full-length human PLD1 (Q13393 other isoform, or with tags, fused parts or gaps): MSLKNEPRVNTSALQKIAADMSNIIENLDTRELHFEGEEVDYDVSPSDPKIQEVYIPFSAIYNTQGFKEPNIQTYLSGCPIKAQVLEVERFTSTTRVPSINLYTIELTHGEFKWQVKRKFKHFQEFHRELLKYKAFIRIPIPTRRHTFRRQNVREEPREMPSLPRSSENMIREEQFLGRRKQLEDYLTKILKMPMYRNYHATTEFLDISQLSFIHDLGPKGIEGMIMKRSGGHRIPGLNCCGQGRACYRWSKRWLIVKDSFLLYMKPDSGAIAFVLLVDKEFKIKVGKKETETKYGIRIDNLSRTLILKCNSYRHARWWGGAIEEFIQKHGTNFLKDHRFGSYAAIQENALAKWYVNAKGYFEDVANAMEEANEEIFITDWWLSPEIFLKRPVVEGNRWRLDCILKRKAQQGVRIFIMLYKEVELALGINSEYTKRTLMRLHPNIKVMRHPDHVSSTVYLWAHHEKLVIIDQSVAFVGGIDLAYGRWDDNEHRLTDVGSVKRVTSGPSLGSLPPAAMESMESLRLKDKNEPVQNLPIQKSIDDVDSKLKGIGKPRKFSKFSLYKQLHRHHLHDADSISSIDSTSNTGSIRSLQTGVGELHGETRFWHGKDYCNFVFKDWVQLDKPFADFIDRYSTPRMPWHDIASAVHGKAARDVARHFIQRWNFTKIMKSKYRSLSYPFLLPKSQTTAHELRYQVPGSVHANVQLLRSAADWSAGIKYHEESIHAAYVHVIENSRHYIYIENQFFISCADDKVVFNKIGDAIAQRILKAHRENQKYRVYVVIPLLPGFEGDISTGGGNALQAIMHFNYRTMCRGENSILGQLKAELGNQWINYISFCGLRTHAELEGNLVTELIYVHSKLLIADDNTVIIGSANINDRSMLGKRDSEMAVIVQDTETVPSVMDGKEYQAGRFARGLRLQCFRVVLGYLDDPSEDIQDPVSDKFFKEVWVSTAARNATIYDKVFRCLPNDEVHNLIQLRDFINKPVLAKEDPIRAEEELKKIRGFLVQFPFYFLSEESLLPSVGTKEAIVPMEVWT

As for `CNC(=O)C(=O)N[C@@H](C)CN1CCC2(CC1)OC(=O)NN=C2c1ccc(C#N)cc1C(F)(F)F` [Example 327], the IC50 – broadly, the midpoint of a concentration-inhibition curve – in test [1] (setting [3]) came to 110 nM; in test [2] (setting [4]) it was 51 nM.
For `CNC(=O)C(=O)N[C@@H](C)C[C@H]1CC[C@]2(CC1)OC(=O)NN=C2c1cnccc1Br` [Example 151], the values for the IC50 in test [1] (setting [3]) and in test [2] (setting [4]) were 18 nM and below 10 nM, respectively.
Regarding `CNC(=O)C(=O)N[C@@H](C)C[C@H]1CC[C@]2(CC1)OC(=O)NN=C2c1cccnc1C` [Example 102], the IC50 in test [1] (setting [3]) was 288 nM; in test [2] (setting [4]), 666 nM.
In the same order, the values of `Cc1cc(C(=O)N[C@@H](C)C[C@H]2CC[C@]3(CC2)OC(=O)NN=C3c2cccc(Br)c2)[nH]n1` [Example 25] are 108 nM and 101 nM.
The matching figures for `C[C@@H](C[C@H]1CC[C@]2(CC1)OC(=O)NN=C2c1ccc(F)cc1Br)NC(=O)C1(O)COC1` [Example 123]: 202 nM and 502 nM.
The matching figures for `COC(=O)N[C@@H](C)C[C@H]1CC[C@]2(CC1)OC(=O)NN=C2c1ccc(F)cc1C` [Example 156]: 236 nM and 412 nM.
As to `CNC(=O)C(=O)N[C@@H](C)C[C@H]1CC[C@]2(CC1)OC(=O)NN=C2c1cc(N2CCOCC2)ccc1C` [Example 256], the IC50 is 27 nM in test [1] (setting [3]) and below 10 nM in test [2] (setting [4]).
Take `C[C@@H](CC1CCC2(CC1)OC(=O)NN=C2c1ccncc1Br)NC(=O)c1cc2ccccc2o1` (mixture of isomers) [Example 122]: the IC50 in test [1] (setting [3]) and in test [2] (setting [4]) was below 10 nM each time.
For the molecule `C=C(OCC)c1ccc(C2=NNC(=O)O[C@]23CC[C@@H](C[C@H](C)NC(=O)C(=O)NC)CC3)c(C)c1` [Example 163], the IC50 in test [1] (setting [3]) and in test [2] (setting [4]) was below 10 nM throughout.
Regarding `COc1cc(C)c(C2=NNC(=O)O[C@]23CC[C@@H](C[C@H](C)NC(=O)NCc2ccccc2F)CC3)cn1` [Example 234], the values for the IC50 in test [1] (setting [3]) and in test [2] (setting [4]) were 247 nM and 474 nM, respectively.
In the same order, the values of `Cc1cc(C(=O)N[C@@H](C)C[C@H]2CC[C@]3(CC2)OC(=O)NN=C3c2ccc(S(C)(=O)=O)cc2)[nH]n1` [Example 9] are 83 nM and 56 nM.
The matching figures for `C[C@@H](C[C@H]1CC[C@]2(CC1)OC(=O)NN=C2c1ccc(F)cc1Cl)NC(=O)c1cc2cc(F)ccc2o1` [Example 61]: 14 nM and 11 nM.
In the same order, the values of `CNC(=O)C(=O)N[C@@H](C)C[C@H]1CC[C@]2(CC1)OC(=O)NN=C2c1cnccc1C` [Example 112] are 31 nM and 20 nM.
As to `CNC(=O)C(=O)N[C@@H](C)C[C@]1(C#N)CC[C@@]2(CC1)OC(=O)NN=C2c1cc(C(F)(F)F)ccc1Br` [Example 2-066], the results for the IC50 in test [1] (setting [3]) and in test [2] (setting [4]) were 15 nM and below 10 nM, respectively.
In the case of `[2H]C([2H])([2H])NC(=O)C(=O)N[C@@H](C)C[C@]1(C#N)CC[C@@]2(CC1)OC(=O)NN=C2c1cccc(C(F)(F)F)c1Br` [Example 2-118], the IC50 was 19 nM in test [1] (column 1 of continuation tables 2-12 to 2-14, read-out: human PLD1 enzyme inhibitory activity IC50) and below 10 nM in test [2] (column 2 of continuation tables 2-12 to 2-14, read-out: human PLD2 enzyme inhibitory activity IC50).
Take `Cc1cc(C(=O)N[C@@H](C)CN2CCC3(CC2)OC(=O)NN=C3c2ccc(C#N)cc2Br)on1` [Example 2-062]: the IC50 in test [1] (setting [3]) and in test [2] (setting [4]) was 25 nM throughout.
As for `C[C@@H](C[C@H]1CC[C@]2(CC1)OC(=O)NN=C2c1ccc(S(C)(=O)=O)cc1Cl)NC(=O)c1cc(Cl)no1` [Example 52], the IC50 was 21 nM in test [1] (setting [3]) and below 10 nM in test [2] (setting [4]).
With `Cc1cc(C(=O)N[C@@H](C)CN2CCC3(CC2)OC(=O)NN=C3c2ccc(Br)cc2C(F)(F)F)[nH]n1` [Example 331], the IC50 in test [1] (setting [3]) is 32 nM; in test [2] (setting [4]), 22 nM.
As for `C[C@@H](C[C@H]1CC[C@]2(CC1)OC(=O)NN=C2c1cc(C#N)ccc1Br)NC(=O)C(=O)O` [Example 2-171], the inhibition (in general, how much of the control response was suppressed) at 10 µM in test [1] (setting [5]) came to 12%; in test [1] (setting [6]) it was 12%; in test [2] (setting [7]), 23%; in test [2] (setting [8]), 23%.
In the case of `CNC(=O)C(=O)N[C@@H](C)C[C@]1(C#N)CC[C@@]2(CC1)OC(=O)N(C)N=C2c1cc(C#N)ccc1Br` [Example 2-112], the inhibition at 10 µM in test [2] (setting [7]) and in test [2] (setting [8]) was 39% throughout.
Consider `CNC(=O)C(=O)N[C@@H](C)C[C@]1(C#N)CC[C@@]2(CC1)OC(=O)NN=C2c1cc(OCC(F)F)ncc1Br` [Example 2-099], for which the inhibition at 10 µM in test [1] (setting [5]) and in test [1] (setting [6]) was 21% in each case.
